Molecules are shown by their SMILES. “Also recorded” adds a separate entry of the source.

One data set has as its system NHDF (normal human skin). Put plainly: Cytotoxicity (sulphorhodamine B), normal cell line, Table 1B. It is filed as cell-based. As to conditions: 72 h.
Data set [1] deals with RPMI-7666 (normal human PBLs). Described as above. It is filed as cell-based. The note with it: 72 h.
Data set [2] concerns CHO (normal human mammary). The description is as above. As to conditions: Homo sapiens, 72 h. It is filed as cell-based.
The next data set has as its system SK (melanoma). Put plainly: Cytotoxicity (sulphorhodamine B), cancer cell line, Table 1B. It is filed as cell-based. As to conditions: 72 h.
The next data set deals with Capan-1 (pancreatic). The data set is described as above. The note with it: Homo sapiens, CAPAN-1, 72 h. Format: cell-based.
In a further data set the test system is H322 (lung carcinoma). Described as above. Format: cell-based. As to conditions: NCI-H322, 72 h.
A further data set has as its system MCF-7 (breast carcinoma). The data set is described as above. Format: cell-based. The note with it: Homo sapiens, MCF7, 72 h.
The test system of data set [3] is BT-549 (breast carcinoma). The data set is described as above. Format: cell-based. The note with it: Homo sapiens, BT-549, 72 h.
Procedure: (§2) The cytotoxicities were determined using the sulphorhodamine B assay method (Skehan, P. et al. J. Nat. Canc. Inst. 82, 1107 (1990)).
The subject of data set [4] is OVCAR-3 (ovarian carcinoma). The data set is described as above. Format: cell-based. The note with it: Homo sapiens, OVCAR-3, 72 h.
Procedure: as §2
The next data set concerns SIHA (cervix carcinoma). Described as above. It is filed as cell-based. The note with it: Homo sapiens, SiHa, 72 h.
The test system of data set [5] is 786-0 (renal cell carcinoma). The description is as above. The note with it: Homo sapiens, 786-0, 72 h. Format: cell-based.
Procedure: as §2
Data set [6] deals with PC-3 (prostate carcinoma). The data set is described as above. Format: cell-based. As to conditions: Homo sapiens, 72 h.
Procedure: as §2
Data set [7] concerns HL-60 (promyel carcinoma). Described as above. It is filed as cell-based. As to conditions: Homo sapiens, HL-60, 72 h.
Procedure: as §2
For data set [8], the system named is MOLT-4 (T-cell leukaemia). Described as above. It is filed as cell-based. As to conditions: Homo sapiens, MOLT-4, 72 h.
Procedure: as §2
Data set [9] relates to UCLA-P-3 (lung carcinoma). Described as above. Format: cell-based. The note with it: Homo sapiens, UCLA P-3, 72 h.
Procedure: as §2
Data set [10] can be described thus: Water solubility in D2O by 1H NMR. As to conditions: compared to taxol. The protocol: The solubilities of the synthesized protaxols in D2 O were determined by 1H NMR spectroscopy.
The resulting mixture was centrifuged for 20 minutes and the supernatant saturated solution was analysed by ^1 H NMR spectroscopy using a Bruker AMX-400 instrument and methanol or pyridine as internal standard. The concentration of the compound was determined by comparing several signals with the CH3 signal of methanol or the NCH signal of pyridine.

The nature of data set [11]: Taxol release from protaxols in aqueous buffer. The note with it: pH 7.0-9.0, 20 and 37° C., FIG. 2A. Format: physicochemical. As to the method: (§1) The derivatives in which the C-7 hydroxyl group was acetylated were extremely unstable in aqueous media losing the C-7 substituent very rapidly. The stability of the synthesized compounds was examined at various pH's and temperatures. […] Table 1A includes the half-lives of six of these compounds at pH 7.5 and 9. […] This illustrates the ability to fine-tune the rate of release of taxol to a desired set of conditions using simple chemical principles.
Protaxol 5 was dissolved in dimethylsulphoxide (DMSO) at 25° C. and immediately added to the appropriate phosphate buffer solution at the specified temperature. Aliquots were analysed using a Waters Maxima system HPLC instrument equipped with auto-injector (3.9×300 mm C18 column equipped with a precolumn; flow rate, 1.5 ml min^-1; eluant, gradient A-B, where A is 80% 100 mM ammonium acetate, buffer pH 6.0, and B is 100% methanol; ultraviolet detector). The per cent taxol released was determined from the relative areas of the peaks corresponding to protaxol 5 and taxol (the conversion was clean, and it was assumed that the two compounds have equal molar extinction coefficients).

A short description of data set [12]: Taxol release in human blood plasma at 37° C. Format: in vitro ADME. The protocol: Protaxol 5 and N-cyclohexylbenzamide (as internal standard) were dissolved in acetonitrile and immediatley added to human plasma or phosphate buffer at pH 7.4. Samples-of protaxol 5 were incubated in each medium for specified times and then extracted with ethyl acetate as described by S. M. Longnecker, et al., Cancer Treat. Rep. 71, 53 (1987). Solvent was removed and the residue dissolved in acetonitrile and analysed by HPLC as already described. The peak areas for compound 5 and taxol were normalized to that of the internal standard using a calibration curve.

The nature of data set [13]: Stability in aqueous media, aprotic organic solvents and solid state. Format: physicochemical. The note with it: aqueous media / pH 7.0 buffer / 20° C.
Source text: as §1

A further data set deals with tubulin / microtubules. The experiment in a line: Tubulin polymerization-depolymerization (CaCl2-induced depolymerization of microtubules). It is filed as biochemical. The note with it: 10^-6 M, 1.0 mg/mL tubulin. The protocol: Tubulin polymerization to microtubules is promoted by GTP, whereas CaCl2 causes depolymerization of microtubules back to tubulin (FIG. 3A). […] The designed protaxol 5 was tested for its ability to stabilize microtubules formed from tubulin via the action of GTP. […] These findings are in agreement with the previously reported loss of activity resulting from blocking the C-2' hydroxyl group.
Tubulin polynerization-depolymerization experiments with taxol and designed protaxol 5 are illustrated in FIG. 3. CaCl2 -promoted depolymerization of microtubules was suppressed by taxol and protaxol 5 (after taxol release).
These measurements may be conducted at 37° C. following a recently developed procedure described by R. Merlock and W. Wrasidlo (Analytical Biochemistry, 1993). In each case 1.0 mM GTP may be employed to promote initial polymerization of tubulin.
D: Tubulin (1.0 mg/mL) with protaxol 5 (10^-6 M) after release of taxol (as determined by HPLC, essentially quantitative conversion).

Procedure for Capan-1 (pancreatic): as §2
Procedure for H322 (lung carcinoma): as §2
Procedure for MCF-7 (breast carcinoma): as §2
Procedure for NHDF (normal human skin): as §2
Procedure for SIHA (cervix carcinoma): as §2
Procedure for SK (melanoma): as §2

For the compound `CC(=O)O[C@H]1C(=O)[C@@]2(C)[C@H]([C@H](OC(=O)c3ccccc3)[C@]3(O)C[C@H](OC(=O)[C@H](OC(=O)CS(=O)(=O)CC(=O)O)[C@@H](NC(=O)c4ccccc4)c4ccccc4)C(C)=C1C3(C)C)[C@]1(OC(C)=O)CO[C@@H]1C[C@@H]2O` [Compound 5], the IC50 in the data set with NHDF (normal human skin) is 1000 nM; in [1] it was 100000 nM; in [2] it was 100000 nM; with SK (melanoma), 10000 nM; in the data set on Capan-1 (pancreatic) it was less than 1 nM; with H322 (lung carcinoma), 1 nM. Moreover, the IC50 was 10000 nM in the data set with MCF-7 (breast carcinoma); less than 1 nM in [3]; less than 1 nM in data set [4]; 100000 nM in the data set with SIHA (cervix carcinoma); 1000 nM in [5]; 1000 nM in [6]. The half-maximal inhibitory concentration (IC50) is less than 1 nM in data set [7], 1 nM in data set [8] and less than 1 nM in [9]. In data set [10], the “Water solubility (in words)” value is “good solubility”. For the same compound, the “effect of temperature and pH on taxol release” value in data set [11] is “accelerating effect of higher temperatures and pH on taxol release”. Moreover, the “taxol release in human blood plasma (in words)” value in data set [12] (compared to pH 7.4 buffer) was “accelerated release of taxol; also recorded: rapidly releasing taxol”. The half-life in data set [12] (human blood plasma) was roughly 1.67 h. Besides, the “stability in aqueous media” value in data set [13] is “good solubility and stability properties in aqueous media; also recorded: quite stable”. For the same compound, the “prevention of CaCl2-induced depolymerization of microtubules” value with tubulin / microtubules (CaCl2 0.25 mM after 16 minutes, 37° C., initial, no prior release) is reported as “failed to prevent CaCl2-induced disassembly of microtubules; also recorded: caused depolymerization of microtubules”. Also, the “prevention of CaCl2-induced depolymerization of microtubules after taxol release” value with tubulin / microtubules (after prolonged exposure / release of taxol) is “reached potencies comparable to that of taxol; also recorded: suppressed”.

The record behind these values is patent publication US5817840A, “Water soluble taxol derivatives” (The Scripps Research Institute, priority 1997, dated 1998).
